Data reported in patent US20220002288A1, “MONOBACTAM COMPOUNDS AND USE THEREFOR” (priority 2018, published 2022).
Structures can show the parent of a compound that is named as a salt.

What was measured:
Format in all cases: cell-based
Pseudomonas aeruginosa = assay: In vitro antibacterial activity, minimum inhibitory concentration (MIC)
Procedure: Compounds: The compounds prepared in the above examples and comparative examples. All test compounds were dissolved and diluted with DMSO, and the final concentrations were prepared as 64, 32, 16, 8, 4, 2, 1, 0.5, 0.25, 0.125, 0.0625 μg/mL in the experiment.
Bacterial strains: 6 strains of Acinetobacter baumannii (codenames: HDBAB-YK4, HDBAB-YK7, HDBAB-YK12, HDBAB-YK16, HDBAB_OXA_7, ATCC 19606), 2 strains of Pseudomonas aeruginosa (codenames: HDBPA-YK9, HDBPA)-YK15), 1 strain of Escherichia coli (codename: CLB30048), all provided by HD Biosciences (Shanghai) Co., Ltd.
(§1) Medium: Trypticase soy agar (TSA) (BD BBL 211043), and Cation-adjusted Mueller Hinton broth (CAMHB) (BD BBL212322).
The bacteria used for the minimum inhibitory concentration (MIC) test were stored frozen at −80° C., and needed 2 days to recover before use. A small amount of frozen bacteria was scraped with a sterile inoculation loop for streak inoculation on a TSA solid medium petri dish. The dish was placed in an ordinary incubator at 35±2° C. for 20-24 hours. 5-10 Colonies with similar morphologies were picked from the above-mentioned petri dish with a sterile inoculating loop for streak inoculation again on a TSA solid medium petri dish. The dish was then placed in an ordinary incubator at 35±2° C. for 20-24 hours.
1.02×CAMHB liquid medium was taken out from a 4° C. refrigerator and placed at room temperature for preheating. 5-10 Individual bacterial colonies were picked from the solid petri dish of the above Section 2.1 and re-suspended in 500 μL of 0.9% NaCl, and then the OD600 was adjusted to 0.1-0.15 with a spectrophotometer. Then the bacteria were diluted 400 times with 1.02×CAMHB (two-step dilution method: firstly diluting 10 times, then diluting 40 times).
The number of inoculated bacteria can be obtained by counting the colonies on the petri dish (see Section 2.4).
One compound was arranged in each row of a 96-well test plate: the highest test concentration for each compound was 64 μg/mL, which was diluted by a factor of two.
Growth control (GC): 1.02×CAMHB and dimethyl sulfoxide (DMSO) containing bacterial inoculum, no compound.
Sterile control (SC): Containing 1.02×CAMHB and DMSO, no compound.
All test compounds were dissolved and diluted with DMSO. 50 μL of 3.2 mg/mL of each test compound was transferred to the initial well (A1-H1) of the dilution plate, and then 25 μL of DMSO was transferred to other wells. The test compounds were sequentially diluted by a factor of 2 from column 1 to column 11 (i.e. drawing 25 μL of test compound from column 1 to column 2 and mixing well, and then drawing 25 μL of test compound from column 2 to column 3 and mixing well, and then drawing 25 μL of test compound from column 3 to column 4 and mixing well, and so on, until diluting to column 11).
2 μL of the compound was transferred from the compound plate to the corresponding well of the test plate. Meanwhile, 2 μL of 100% DMSO was transferred to the compound-free wells (the GC and SC wells).
98 μL of the corresponding bacterial inoculum was added to the test plate (except for the SC well).
98 μL of 1.02×CAMHB medium was added to the SC well of the test plate.
After the system was added, the test plate was covered with a sterile lid, centrifuged at 800 rpm for 30 seconds, then shaken on a plate shaker at 400 rpm for 1 minute for mixing well, and then placed in an incubator at 35±2° C. for 20 hours.
The inoculated bacteria were gradient diluted by 10 folds with the liquid medium, from 10^−1 to 10^−3. 100 μL of the above bacterial dilution was spread evenly on a TSA petri dish, 2 replicates for each dilution. After the medium was absorbed by TSA for 10 minutes, the petri dishes were reversed and incubated in an incubator at 35±2° C. for 24 hours.
A compound management system was turned on to check whether the barcode and compound arrangement of each test plate were correct. […]

[1] = tested on: drug-resistant Acinetobacter baumannii; assay: MIC in combination with Relebactam
From the text: In addition, the inventors of the present invention also tested the inhibitory activities of the compound of Example 1 and Compound C, respectively, in combination with Relebactam on drug-resistant Acinetobacter baumannii (the experimental method was the same as that in Experimental Example 1).

[2] = tested on: clinically isolated Escherichia coli; assay: MIC experiment of clinically sourced bacterial strains
Procedure: (§2) Compounds: the compound of Example 1 and Compound C of Comparative Example 3. Both test compounds were dissolved and diluted with DMSO, and the final concentrations were prepared as 64, 32, 16, 8, 4, 2, 1, 0.5, 0.25, 0.125, 0.0625 μg/mL in the experiment.
(§3) Bacterial strains: clinically isolated Acinetobacter baumannii, Pseudomonas aeruginosa, Klebsiella pneumoniae and Escherichia coli, all provided by HD Biosciences (Shanghai) Co., Ltd.
as §1
(§4) The experimental method was the same as that in the above Experimental Example 1.

[3] = tested on: clinically isolated Klebsiella pneumoniae; assay: as above; conditions: for MIC: Klebsiella pneumoniae
Procedure: as §2, §3, §1, §4

[4] = tested on: clinically isolated Pseudomonas aeruginosa; assay: as above
Procedure: as §2, §3, §1, §4

[5] = tested on: clinically isolated Acinetobacter baumannii; assay: as above; conditions: for MIC: Acinetobacter baumannii
Procedure: as §2, §3, §1, §4

**Q.** Which MIC (Pseudomonas aeruginosa; strain HDBPA-YK9) does the source give for `CC1(C)[C@H](NC(=O)/C(=N\O[C@@H](COc2ccc(C(=O)Nc3cn(CCCN)[n+](CC4CNC4)c3)cc2)C(=O)O)c2csc(N)n2)C(=O)N1OS(=O)(=O)[O-]` [Example 1, (S)-3-((Z)-2-(((S)-2-(4-((1-(3-aminopropyl)-2-(azetidin-3-ylmethyl)-1H-pyrazol-2-ium-4-yl)carbamoyl)phenoxy)-1-carboxyethoxy)imino)-2-(2-aminothiazol-4-yl)acetylamino)-2,2-dimethyl-4-oxoazetidin-1-yl Sulfate] here?
**A.** 2 µg/mL

**Q.** What about the MIC (Pseudomonas aeruginosa; strain HDBPA-YK15) of the same compound?
**A.** 32 µg/mL

**Q.** What about the MIC ([1]; strain HDBAB-YK12, in combination with 4 μg/mL Relebactam) of the same compound?
**A.** 2 µg/mL

**Q.** And the MIC ([1]; strain HDBAB-YK16, in combination with 4 μg/mL Relebactam)?
**A.** 4 µg/mL

**Q.** What about the MIC ([1]; strain HDBAB_OXA_7, in combination with 4 μg/mL Relebactam) of the same compound?
**A.** 2 µg/mL

**Q.** And the MIC ([2]; clinical strain HDB0140)?
**A.** 1 µg/mL

**Q.** What about the MIC ([2]; clinical strain HDB0918) of the same compound?
**A.** 0.25 µg/mL

**Q.** What about the MIC ([2]; clinical strain HDB1120) of the same compound?
**A.** ≤ 0.063 µg/mL

**Q.** What about the MIC ([2]; clinical strain HDB5510) of the same compound?
**A.** 0.125 µg/mL

**Q.** What about the MIC ([2]; clinical strain HDB8244) of the same compound?
**A.** 0.5 µg/mL

**Q.** And the MIC ([3]; clinical strain Kp309)?
**A.** ≤ 0.063 µg/mL

**Q.** And the MIC ([3]; clinical strain Kp310)?
**A.** ≤ 0.063 µg/mL

**Q.** And the MIC ([3]; clinical strain Kp472)?
**A.** 0.125 µg/mL

**Q.** And the MIC ([3]; clinical strain Kp510)?
**A.** 0.25 µg/mL

**Q.** And the “MIC value relative to that of Compound C” value ([3]; strain Kp309)?
**A.** ¼

**Q.** What about the MIC ([4]; clinical strain P7) of the same compound?
**A.** 1 µg/mL

**Q.** And the MIC ([4]; clinical strain P43)?
**A.** 0.25 µg/mL

**Q.** And the MIC ([4]; clinical strain P155)?
**A.** 1 µg/mL

**Q.** What about the MIC ([4]; clinical strain P157) of the same compound?
**A.** 1 µg/mL

**Q.** And the MIC ([4]; clinical strain P162)?
**A.** 1 µg/mL

**Q.** And the MIC ([5]; clinical strain A0242702)?
**A.** ≤ 0.063 µg/mL

**Q.** And the MIC ([5]; clinical strain A0244122)?
**A.** 0.5 µg/mL

**Q.** What about the MIC ([5]; clinical strain A0248164) of the same compound?
**A.** 1 µg/mL

**Q.** What about the MIC ([5]; clinical strain A0248384) of the same compound?
**A.** 1 µg/mL

**Q.** And the MIC ([5]; clinical strain A0252247)?
**A.** ≤ 0.063 µg/mL

**Q.** What about the MIC ([5]; clinical strain A0254384) of the same compound?
**A.** ≤ 0.063 µg/mL

**Q.** And the MIC ([5]; clinical strain A0255830)?
**A.** 4 µg/mL

**Q.** And the MIC ([5]; clinical strain A0257674)?
**A.** ≤ 0.063 µg/mL

**Q.** What about the MIC ([5]; clinical strain A0258522) of the same compound?
**A.** ≤ 0.063 µg/mL

**Q.** And the MIC ([5]; clinical strain A0262855)?
**A.** ≤ 0.063 µg/mL

**Q.** And the MIC ([5]; clinical strain A0270386)?
**A.** 1 µg/mL

**Q.** And the MIC ([5]; clinical strain A0272260)?
**A.** 0.125 µg/mL

**Q.** And the MIC ([5]; clinical strain A0273375)?
**A.** 1 µg/mL

**Q.** What about the MIC ([5]; clinical strain A0273826) of the same compound?
**A.** 4 µg/mL

**Q.** And the MIC ([5]; clinical strain A0274925)?
**A.** 0.125 µg/mL

**Q.** And the MIC ([5]; clinical strain A0283307)?
**A.** ≤ 0.063 µg/mL

**Q.** And the MIC ([5]; clinical strain A0284214)?
**A.** ≤ 0.063 µg/mL

**Q.** What about the MIC ([5]; clinical strain A0284295) of the same compound?
**A.** ≤ 0.063 µg/mL

**Q.** And the MIC ([5]; clinical strain A0284552)?
**A.** 0.5 µg/mL

**Q.** And the MIC ([5]; clinical strain A0285002)?
**A.** 1 µg/mL

**Q.** What about the MIC ([5]; clinical strain A0285050) of the same compound?
**A.** 0.125 µg/mL

**Q.** What about the MIC ([5]; clinical strain A0285231) of the same compound?
**A.** 1 µg/mL

**Q.** What about the MIC ([5]; clinical strain A0285299) of the same compound?
**A.** ≤ 0.063 µg/mL

**Q.** What about the MIC ([5]; clinical strain A0285369) of the same compound?
**A.** ≤ 0.063 µg/mL

**Q.** What about the MIC ([5]; clinical strain A0285909) of the same compound?
**A.** 4 µg/mL

**Q.** And the MIC ([5]; clinical strain A0286065)?
**A.** 1 µg/mL

**Q.** What about the MIC90 ([5]; clinically isolated Acinetobacter baumannii) of the same compound?
**A.** 4 µg/mL

**Q.** What about the “MIC value relative to that of Compound C” value ([5]; strains A0244122, A0255830, A0273826, A0285299, A0285909) of the same compound?
**A.** ¼
